Data set [1] has as its system Pseudomonas aeruginosa protease. Put plainly: Protease assay for P. aeruginosa (strains P1, PA14, ZK45 supernatants). The note with it: 20 mM tris (pH 7.5), 150 mM NaCl, 37° C. It counts as biochemical. From the text: The peptide substrates used here were labeled with the fluorescent probe edans (5-((2-aminoethyl)amino)naphthalene-1-sulfonic acid) and the quencher dye molecule dabcyl ((4-(4-(dimethylamino)phenyl)azo)benzoic acid). The labeled peptide sequences used were as follows: […]

In another data set the test system is P. aeruginosa protease. In words: Protease assay on porcine wound fluid. The class given is biochemical, Pseudomonas aeruginosa. To be noted: porcine wounds infected with 10^3, 10^4 or 10^5 bacteria, 3 days; 1 hour reaction; FIG. 18. The protocol: In order to test for the presence of enzymatic activity in a wound bacterial protease assay for detection of P. aeruginosa was performed on samples obtained from wound infections made in pigs. […] Each of the resulting cultures was diluted into sodium phosphate buffer at pH 7.2 with 150 mM NaCl (PBS buffer) to give samples containing 10^5, 10^4, and 10^3 bacteria total in 100 μL. Immediately after surgery to create a series of partial thickness wounds was performed on the pigs, the wound surfaces were treated with calcium chloride solution for a short period and then patted dry. A buffer solution containing diluted bacterial cultures was placed on the surface of the wounds. The wounds were then covered and the infections were allowed to grow for a period of 3 days. After the dressing was removed from the pigs and the wounds were scored for degree of inflammation, 100 μL of PBS buffer was added to the wound surface and the extracted wound fluid was recovered by pipet. Each of the samples was split in half and 50 μL were used to inoculate BHI plates and the other 50 μL were placed in plastic tubes and immediately frozen at −80° C.
The buffer used to dilute the wound fluid in the protease assays was PBS. […] The reaction was followed on a fluorimetric plate reader using an excitation wavelength of 355 nm and an emission wavelength of 528 nm.

For data set [2], the system named is DNA metabolism enzymes (exonuclease and endonuclease) in bacterial supernatants. Put plainly: Fluorescent DNA probe assay for DNA metabolism activity. It counts as biochemical. The note with it: supernatants of eight bacteria; excitation 485 nm, emission 538 nm; 37° C. As to the method:
Another method for detecting DNA metabolism activity is to generate synthetic colorimetric and fluorescent DNA probes that can indicate DNA hydrolysis (exonuclease and endonuclease activity). The method was carried out as follows. Two complementary oligonucleotides were generated. One oligonucleotide was labeled with self-quenching fluorescent labels, while the other primer remained unlabeled. The sequences of the oligonucleotides were as follows: Unlabeled Sequence 5′-[…]-3 (SEQ ID NO: 6); and Labeled Sequence FL-5′-[…]-3′-FL (SEQ ID NO: 7). […] The culture was spun down by centrifugation and the supernatant was collected. The fluorescent labeled primer and its unlabeled complement were dissolved in water at a concentration of approximately 1 mg/mL. The primers were heated to melting temperature for 2 minutes at 92° C., then allowed to anneal for 5 minutes at 43° C. After annealing, the DNA substrate was added to the reaction buffer (20 mM tris (pH 7.4) with 150 mM NaCl) and incubated at 37° C. for 10 minutes. The reaction was carried out with 7 μL of culture supernatant and 3 μL of DNA substrate in 100 μL total volume at 37° C. The reaction was followed using a fluorimetric plate reader using an excitation wavelength of 485 nm and an emission wavelength of 538 nm. […]

A further data set concerns Pseudomonas protease. Put plainly: Protease assay with modified version of papa1, bacterial supernatants. The class given is biochemical, Pseudomonas aeruginosa. The note with it: supernatants of eight bacteria; excitation 355 nm, emission 485 nm; FIG. 17A. As to the method:
The protease assay described herein for detection of P. aeruginosa was run with the modified version of papa1. […] Each of the resulting cultures was spun down by centrifugation and the supernatant was collected. The assays were run in 20 mM tris buffer (pH 7.4) with 150 mM NaCl added. The reaction was carried out with 7 μL of supernatant and 3 μL of peptide substrate (5 mg/mL in water) in 100 μL total volume at 37° C. The reaction was followed on a fluorimetric plate reader using an excitation wavelength of 355 nm and an emission wavelength of 485 nm.

A further data set deals with Pseudomonas. Put plainly: Peptide on positively charged membrane exposed to Pseudomonas culture medium. The class given is biochemical. The note with it: FIG. 17C. From the text: Electrostatic interactions make use of the charges on the peptide or chromophore to bind it to a surface to make a biosensor. For example, ion exchange membranes with a strong negative (ICE450) or positive (SB-6407) charge are available from Pall Gelman Laboratory, Ann Arbor, Mich. It is possible to bind the peptide substrates through interactions with their charged groups. The peptide substrate papa2, as described herein, was spotted onto a positively charged membrane and exposed to Pseudomonas culture medium.

The subject of data set [3] is surface of Staphylococcus. Put plainly: Binding of fluorescent peptide to the surface of Staphylococcus. To be noted: predicted. From the text: Substrates for use in the present invention include any molecule, either synthetic or naturally-occurring that can interact with an enzyme of the present invention. Examples of substrates include those substrates described herein, as well as substrates for these enzymes that are known in the art. […] Such substrates described herein can be obtained from commercial sources, e.g., Sigma (St. Louis, Mo.), or can be produced, e.g., isolated or purified, or synthesized using methods known to those of skill in the art.

Data set [4] concerns lipases secreted by bacteria (Staphylococcus epidermidis). Put plainly: Lipase assay, S. epidermidis culture supernatant. The class given is biochemical. To be noted: 20 mM Tris (pH 8.5), 37° C., 60 minutes. As to the method: (§1) A culture of each of the following bacterial species was grown to saturation in Brain Heart Infusion (BHI) broth at 37° C. with vigorous shaking (˜200 rpm), using methods that are standard in the art: Staphylococcus aureus; Staphylococcus epidermidis; Serratia marcescens; Streptococcus salivarius; Escherichia coli; Pseudomonas aeruginosa; and Enterococcus faecalis. After overnight growth (to saturation), a 1 mL sample of each culture was obtained, and the cells were removed from the culture supernatant by centrifugation at 12,000×g for 5 minutes. The remaining culture supernatants were stored on ice until required (less than one hour). The bacteria were assayed for the presence or absence of specific enzymes as described below. Alternatively, the bacterial cells are not separated from the culture supernatant, but rather, the assay is carried out on a sample containing the cells still in suspension in their culture broth. […]
(§2) To perform the lipase assay, 80 μL of reaction buffer, 10 μL of culture supernatant from each bacteria species described in Example 2, and 10 μL of assay substrate were added to a well of a 96-well microplate. […] At 5 minute intervals during the incubation period, absorbance at 415 nm, indicating modification of the enzyme by a lipase secreted by the cells, was automatically measured using a BioRad Benchmark Microplate reader.

For the next data set, the system named is lipase from S. aureus. Put plainly: Lipase assay, S. aureus culture supernatant. The note with it: 20 mM Tris (pH 8.5), 37° C., 60 minutes. The class given is biochemical, Staphylococcus aureus. The protocol:
A culture of each of the following bacterial species was grown to saturation in Brain Heart Infusion (BHI) broth at 37° C. with vigorous shaking (˜200 rpm), using methods that are standard in the art: Staphylococcus aureus; Staphylococcus epidermidis; Serratia marcescens; Streptococcus salivarius; Escherichia coli; Pseudomonas aeruginosa; and Enterococcus faecalis. After overnight growth (to saturation), a 1 mL sample of each culture was obtained, and the cells were removed from the culture supernatant by centrifugation at 12,000×g for 5 minutes. The remaining culture supernatants were stored on ice until required (less than one hour). The bacteria were assayed for the presence or absence of specific enzymes as described below. Alternatively, the bacterial cells are not separated from the culture supernatant, but rather, the assay is carried out on a sample containing the cells still in suspension in their culture broth.
To test for the presence or absence of lipases secreted by bacteria, the lipase substrate p-nitrophenyl caprate, obtained from Sigma (Catalog No.: N-0252). This lipase substrate consists of capric acid, a ten-carbon lipid molecule, esterified with the dye para nitrophenol (detectable label) as described above. The substrate was dissolved in isopropyl alcohol at a concentration of 8 mM (2.35 mg/mL). A reaction buffer containing 20 mM Tris (pH 8.5) was also prepared.
To perform the lipase assay, 80 μL of reaction buffer, 10 μL of culture supernatant from each bacteria species described in Example 2, and 10 μL of assay substrate were added to a well of a 96-well microplate. Each bacterial species was assayed individually, and the assays were performed in triplicate. The 96-well plate was incubated at 37° C. for 60 minutes. At 5 minute intervals during the incubation period, absorbance at 415 nm, indicating modification of the enzyme by a lipase secreted by the cells, was automatically measured using a BioRad Benchmark Microplate reader.
However, it is known that bacterial lipases do show strong substrate specificity with regard to the chain length of the fatty acid they hydrolyze (Van Kampen et al., BBA, 1544: 229, 2001) and to the location in a lipid layer. The degree that the environment of the substrate affects the efficiency of hydrolysis depends on the particular enzyme. To test this for the lipase from S. aureus, the above-described lipase assay was performed in the presence of several detergent and solvent additives. The reaction buffer consisted of 20 mM Tris (pH 8.3) with 1 mM ZnSO4 added, plus either nothing additional (control), 20% methanol, 20% DMSO, or 10 mM Triton X-100.

The test system of data set [5] is Serratia marcescens, Streptococcus salivarius, Escherichia coli, Pseudomonas aeruginosa, Enterococcus faecalis supernatants. In words: Lipase assay, other bacterial supernatants. The class given is biochemical. To be noted: other bacterial samples; 20 mM Tris (pH 8.5); 37° C., 60 minutes. The protocol:
as §1, §2

Data set [6] relates to Staphylococcus epidermidis. In words: Glass microfiber filter biosensor, S. epidermidis culture. It counts as biochemical. The note with it: Quadrant #2, S. epidermidis; 37° C., 30 minutes. The protocol: (§3) An example of a biosensor for the detection of an enzyme secreted by Staphylococcus epidermidis (S. epidermidis), and therefore, for the detection of Staphylococcus epidermidis now follows. A […] solution of 20 mM p-nitrophenyl Caprate (in ispropanol) was applied to a 2.5 cm glass microfiber filter (Whatman GF/A). The isopropanol was allowed to evaporate at room temperature for 30 minutes, leaving the substrate bound to the filter. After the filter was completely dry, a single drop of bacterial culture was applied to each quadrant of the filter. In Quadrant #1, Staphylococcus aureus was applied; in Quadrant #2, Staphylococcus epidermidis was applied; in Quadrant #3 Streptococcus salivarius was applied, and in Quadrant #4, media was applied as a control. The filter was incubated at 37° C. for 30 minutes, and detection of a yellow dye, indicating modification of the substrate by an enzyme in the bacteria was detected.

The next data set has as its system Staphylococcus aureus. In words: Glass microfiber filter biosensor, S. aureus culture. The note with it: Quadrant #1, S. aureus; 37° C., 30 minutes. It counts as biochemical. As to the method:
as §3

A further data set concerns Streptococcus salivarius. Put plainly: Glass microfiber filter biosensor, S. salivarius culture. To be noted: Quadrant #3, S. salivarius; 37° C., 30 minutes. The class given is biochemical. The protocol: as §3

Primed or numbered codes have the meaning given here. No end group written: not given here. *: point of attachment. Dabcyl″ = label, CN(C)c1ccc(/N=N/c2ccc(C(=O)*)cc2)cc1; EDANS = O=S(=O)(O)c1cccc2c(NCCN*)cccc12; Dabcyl′ = not defined here; pyrene = label

With “Edans - KAAHKSALKSAE - Dabcyl (Edans-KAAHKSALKSAE-{Dabcyl′}) [papa1, labeled peptide substrate of Pseudomonas aeruginosa, origin PepA]”, in [1], the “enzymatic cleavage of peptide substrate (relative fluorescent intensity)” value is “cleaved”. Besides, the “detection of P. aeruginosa in extracted wound fluid (relative fluorescence)” value with P. aeruginosa protease is “samples containing P. aeruginosa were detectable”.

Regarding “FL-5′-AGGAATTCAGTGGATCCTCGAGAGG-3′-FL (antisense CCTCTCGAGGATCCACTGAATTCCT; sense: DNA, backbone not given here; antisense: DNA, backbone and methylation of C not given here; further chemistry not fully specified) [labeled DNA probe]”, the “DNA metabolic activity (relative fluorescence of labeled probe)” value in [2] is recorded as “detected specific DNA metabolic activity associated with Enterococcus”.

In the case of “KKAS(E-edans)AAHKSALKSAE(K-dabcyl) (KKASE(EDANS)AAHKSALKSAEK(Dabcyl″)) [papa2, papa1 version with two lysine groups as tag for surface attachment]”, the “cleavage of protease substrate (relative fluorescence), comparison of species” value in the data set on Pseudomonas protease is on record as “greatest fluorescence in the sample containing Pseudomonas”. Moreover, in the data set with Pseudomonas, the “fluorescence upon cleavage on membrane” value was “upon cleavage of the peptide yellow fluorescence”.

For the compound “PGTKLYTVPW-pyrene [Alt derived fluorescent peptide]”, the “change in fluorescence upon binding” value in data set [3] is listed as “increase in fluorescence upon binding”.

Consider `CCCCCCCCCC(=O)Oc1ccc([N+](=O)[O-])cc1` [p-nitrophenyl caprate], for which the “color change (absorbance at 415 nm)” value in data set [4] is listed as “showed a dramatic color change”; in the data set on lipase from S. aureus it was “showed a dramatic color change”; in data set [5], “showed no color change”. The results for the “modification of labeled substrate on filter (yellow dye)” value (in [6]; with Staphylococcus aureus; in the data set on Streptococcus salivarius) were “Modification of the labeled substrate was detected”, “no modification of the labeled substrate was detected” and “no modification of the labeled substrate was detected”, respectively.
